Data from patent US20210284668A1, “GOLD (I)-PHOSPHINE 1,2,3-TRIAZOLE DERIVATIVES WITH ANTIBIOTIC PROPERTIES” (Centre National de la Recherche Scientifique, priority 2018, published 2021).
Values joined by “and” are separate entries in the source; they are usually repeats but may differ in a detail not shown here. Identical values can stand only once.

Tests used:
S. aureus ATCC25923 = assay: MIC by microdilution, S. aureus ATCC25923; assay type: cell-based, Staphylococcus aureus; conditions: S. aureus ATCC25923 (MecA negative, wild-type), Mueller-Hinton broth, in duplicate
Procedure: (§1) The antibacterial profile of each derivative was evaluated by the standard microdilution method for susceptibility testing on 16 different strains, following the guidelines of CLSI. The selected panel included: • S. aureus ATCC25923 (MecA negative, wild-type) • S. aureus ATCC29213 (MecA negative, wild-type) • S. aureus ATCC700699 (MecA positive, glycopeptide resistant) • S. aureus ST20131365 (MecA positive, glycopeptide resistant) • S. epidermidis ATCC14990 (MecA negative, wild-type) • S. epidermidis ATCC35984 (MecA positive) • S. epidermidis ST20140436 (MecA positive, glycopeptide resistant) • S. epidermidis ST20150446 (MecA positive, glycopeptide resistant) • E. faecalis JH2-2 (wild-type) • E. faecalis UCN41 (VanA positive, glycopeptide resistant) • E. faecalis V583 (VanB positive, glycopeptide resistant) • E. faecium ATCC19434T (wild-type) • E. faecium BM4147 (VanA positive, glycopeptide resistant) • E. faecium AUS0004 (VanB positive, glycopeptide resistant) • E. coli ATCC25922 (wild-type) • Clostridium difficile ATCC9689 (wild-type)
(§2) Both series issued from the SAR study were evaluated for their antibacterial activity on a panel of characterized strains obtained from the French National Reference Centers for Staphylococci (Lyon, Pr. Fréderique Laurent) and for Enterococci (Caen, Pr. Vincent Cattoir), respectively. As shown in the following tables, both series contain very active compounds on multi-resistant Gram-positive bacteria (Minimal Inhibitory Concentrations lower than comparator antibiotic ampicillin). Furthermore, a very important antibacterial effect has been shown too on a strain of Clostridium difficile, a Gram-positive, spore-forming, bacillus responsible for post-antibiotic diarrhoae.
(§3) The antibacterial activity of test compounds was evaluated on a selected panel of Gram-positive (4 Staphylococcus aureus, 4 Staphylococcus epidermidis, 3 Enterococcus faecalis, 3 Enterococcus faecium, 1 Clostridium difficile) and Gram-negative strains (1 Escherichia coli, 1 Klebsiella pneumoniae, 1 Pseudomonas aeruginosa, 1 Acinetacter baumannii) with known features of antibiotic resistance (from wild-type susceptibility to multi-drug resistance). The Minimal Inhibitory Concentration (MIC) of test compounds was determined in duplicate by the microdilution method in 96-well microplates with a final volume of 100 μL per well and Mueller-Hinton broth as the growth medium, as recommended by the CLSI (Clinical and Laboratory Standards Institute, document Mo7-A10, USA).

S. aureus ATCC700699 = assay: MIC by microdilution, S. aureus ATCC700699; assay type: cell-based, Staphylococcus aureus; design: unit not given here; conditions: S. aureus ATCC700699 (MecA positive, glycopeptide resistant), in duplicate
Procedure: as §1, §2, §3

S. epidermidis ATCC14990 = assay: MIC by microdilution, S. epidermidis ATCC14990; assay type: cell-based, Staphylococcus epidermidis; conditions: S. epidermidis ATCC14990 (MecA negative, wild-type), in duplicate
Procedure: as §1, §2, §3

S. epidermidis ATCC35984 = assay: MIC by microdilution, S. epidermidis ATCC35984; assay type: cell-based, Staphylococcus epidermidis; conditions: S. epidermidis ATCC35984 (MecA positive), in duplicate
Procedure: as §1, §2, §3

E. faecalis JH2-2 = assay: MIC by microdilution, E. faecalis JH2-2; assay type: cell-based, Enterococcus faecalis; design: unit not given here; conditions: E. faecalis JH2-2 (wild-type), in duplicate
Procedure: as §1, §2, §3

E. faecalis UCN41 = assay: MIC by microdilution, E. faecalis UCN41; assay type: cell-based, Enterococcus faecalis; design: unit not given here; conditions: E. faecalis UCN41 (VanA positive, glycopeptide resistant), in duplicate
Procedure: as §1, §2, §3

E. faecium ATCC19434T = assay: MIC by microdilution, E. faecium ATCC19434T; assay type: cell-based, Enterococcus faecium; design: unit not given here; conditions: E. faecium ATCC19434T (wild-type), in duplicate
Procedure: as §1, §2, §3

E. faecium BM4147 = assay: MIC by microdilution, E. faecium BM4147; assay type: cell-based, Enterococcus faecium; design: unit not given here; conditions: E. faecium BM4147 (VanA positive, glycopeptide resistant), in duplicate
Procedure: as §1, §2, §3

[1] = system: panel of Gram-positive and Gram-negative strains; assay: Antibacterial profile on the selected panel of strains; assay type: cell-based; conditions: summary of Tables 1-12
Procedure: as §1, §2, §3

S. aureus ST20131365 = assay: MIC by microdilution, S. aureus ST20131365; assay type: cell-based, Staphylococcus aureus; conditions: S. aureus ST20131365 (MecA positive, glycopeptide resistant), in duplicate
Procedure: as §1, §2, §3

E. faecalis V583 = assay: MIC by microdilution, E. faecalis V583; assay type: cell-based, Enterococcus faecalis; conditions: E. faecalis V583 (VanB positive, glycopeptide resistant), in duplicate
Procedure: as §1, §2, §3

E. faecium AUS0004 = assay: MIC by microdilution, E. faecium AUS0004; assay type: cell-based, Enterococcus faecium; conditions: E. faecium AUS0004 (VanB positive, glycopeptide resistant), in duplicate
Procedure: as §1, §2, §3

E. coli ATCC25922 = assay: MIC by microdilution, E. coli ATCC25922; assay type: cell-based, Escherichia coli; conditions: E. coli ATCC25922 (wild-type), in duplicate
Procedure: as §1, §2, §3

[2] = system: Clostridium difficile ATCC700057; assay: MIC by microdilution, Clostridium difficile; assay type: cell-based; conditions: strain ATCC70057 [sic] (Tables 1-2) / ATCC700057 (Tables 3-10), in duplicate
[3] = system: S. epidermidis ST20150446; assay: MIC by microdilution, S. epidermidis ST20150446; assay type: cell-based, Staphylococcus epidermidis; conditions: S. epidermidis ST20150446 (MecA positive, glycopeptide resistant), in duplicate
Procedure: as §1, §2, §3

[4] = system: S. epidermidis ST20140436; assay: MIC by microdilution, S. epidermidis ST20140436; assay type: cell-based, Staphylococcus epidermidis; conditions: S. epidermidis ST20140436 (MecA positive, glycopeptide resistant), in duplicate
Procedure: as §1, §2, §3

Compound | Minimal Inhibitory Concentration (MIC) (S. aureus ATCC25923) | Minimal Inhibitory Concentration (MIC) (S. aureus ATCC700699) | Minimal Inhibitory Concentration (MIC) (S. epidermidis ATCC14990) | Minimal Inhibitory Concentration (MIC) (S. epidermidis ATCC35984) | Minimal Inhibitory Concentration (MIC) (E. faecalis JH2-2) | Minimal Inhibitory Concentration (MIC) (E. faecalis UCN41) | Minimal Inhibitory Concentration (MIC) (E. faecium ATCC19434T) | Minimal Inhibitory Concentration (MIC) (E. faecium BM4147) | antimicrobial / antibacterial activity (in words) [1] | Minimal Inhibitory Concentration (MIC) (S. aureus ST20131365) | Minimal Inhibitory Concentration (MIC) (E. faecalis V583) | Minimal Inhibitory Concentration (MIC) (E. faecium AUS0004) | Minimal Inhibitory Concentration (MIC) (E. coli ATCC25922) | Minimal Inhibitory Concentration (MIC) [2] | Minimal Inhibitory Concentration (MIC) [3] | Minimal Inhibitory Concentration (MIC) [4]
C[C@@H]1COc2c(N3CCN(C)CC3)c(F)cc3c(=O)c(C(=O)O)cn1c23 [TMB47, Ofloxacin, reference compound] | 0.25 | >8 | 0.25 | 0.125 | 2 | 2 | 4 | 1 | have antimicrobial activity | – | – | – | – | – | – | –
CC[P+](CC)(CC)[Au-][c]1nn[nH]c1CNC(=O)NC(C(=O)NC1C(=O)N2C1SC(C)(C)C2C(=O)O)c1ccccc1 (centres unmarked) [TMB24] | 0.125 | 0.125 and 0.25 | ≤0.06 | 0.125 | 0.25 and 0.5 | 0.25 | 0.5 | 0.5 | have antimicrobial activity | 0.25 | 0.25 and 0.5 | 0.5 | >8 | ≤0.06 | – | –
C#CCOC(=O)N[C@@H](C(=O)N[C@@H]1C(=O)N2[C@@H]1SC(C)(C)[C@@H]2C(=O)O)c1ccccc1 [TMB2] | – | – | – | – | – | – | – | – | do not show an antibacterial activity | – | – | – | – | – | – | –
CC[P+](CC)(CC)[Au-][c]1nn[nH]c1CN1CCOCC1 [TMB32] | – | 0.125 and 0.25 | ≤0.06 | ≤0.06 | 0.125 | 0.25 | 0.25 | 0.25 | have antimicrobial activity | 0.125 | 0.25 | 0.25 | >8 | ≤0.06 | 0.125 and 0.25 | –
CC[P+](CC)(CC)[Au-][c]1nn[nH]c1CCC(=O)N[C@H](CO)C(=O)O [TMB38] | ≤0.06 | 0.125 | ≤0.06 | ≤0.06 | 0.125 | 0.125 | ≤0.06 | 0.125 | have antimicrobial activity | ≤0.06 | 0.125 | 0.125 | – | 0.125 and 0.25 | ≤0.06 | ≤0.06
CC[P+](CC)(CC)[Au-][c]1nn[nH]c1CNC(=O)NC(C(=O)O)c1ccccc1 (centres unmarked) [TMB52] | – | 0.125 | ≤0.06 | ≤0.06 | 0.25 | 0.25 | 0.25 | 0.25 | have antimicrobial activity | – | – | – | – | – | – | –
C#CCNc1c(F)cc2c(=O)c(C(=O)O)cn3c2c1OCC3C (centres unmarked) [TMB51] | 2 | >8 | 4 | 2 | >8 | >8 | >8 | >8 | do not show an antibacterial activity | – | – | – | – | – | – | –
CC(=O)O.CC[P+](CC)(CC)[Au-][c]1nn[nH]c1CCN [TMB50] | 0.125 | 0.125 | ≤0.06 | ≤0.06 | 0.25 | 0.5 | 0.25 | 0.25 | have antimicrobial activity | – | – | – | – | – | – | –
CC[P+](CC)(CC)[Au-][c]1nn[nH]c1CNc1c(F)cc2c(=O)c(C(=O)O)cn3c2c1OCC3C (centres unmarked) [TMB49] | 0.125 | 0.25 | ≤0.06 | ≤0.06 | 1 | 1 | 0.5 and 1 | 1 | have antimicrobial activity | – | – | – | – | – | – | –
CC(=O)OC[C@H]1O[C@@H]([S-])[C@H](OC(C)=O)[C@@H](OC(C)=O)[C@@H]1OC(C)=O.CCP(CC)CC.[Au+] [Auranofin, reference compound] | – | ≤0.06 | ≤0.06 | ≤0.06 | – | – | ≤0.06 | – | – | – | – | – | – | – | – | –
CC[P+](CC)(CC)[Au-][c]1nn[nH]c1CN1C(=O)NC2CSC(CCCCC(=O)O)C21 (centres unmarked) [TMB48] | 0.25 | 0.5 | 0.125 | 0.125 | 1 | 1 | 1 | 2 | have antimicrobial activity | – | – | – | – | – | – | –
